Measurements reported in publication PMC4077696 (PLoS Biology, 2014).
Entries after “also recorded” stand apart in the source; their conditions may differ. Counter-ions that a name gives are not always drawn.

What was measured:
[1] = system: P. falciparum protein translation; assay: Global protein synthesis by radiolabeling parasite proteins after drug treatment; type: cell-based, Plasmodium falciparum; settings: for Global protein synthesis after 23 h treatment of rings: 15 µM or 50>15 µM, BFA 5 µg/ml; for Global protein synthesis after 5 h treatment of trophozoites: 15 or 50 µM, BFA 10 µg/ml, 15 min labeling
Experimental: To gain further insight into the effects of 916, 024, and 025 on parasites, we assessed global protein synthesis following drug treatment by radiolabeling parasite proteins. Treatment of trophozoites with inhibitor for 5 h prior to radiolabeling had no detectable effect on translation, even at 50 µM concentrations (Figure S4A), indicating the compounds are not direct inhibitors of the translation machinery. We next assessed protein synthesis following 23 h of drug treatment of ring stage parasites (aged 1–3 h old at the initiation of treatment). […] Indeed, Giemsa smears following treatment identified a small proportion of pyknotic parasites in the population (results not shown). […] It is possible that PMV inhibition by 916 treatment has a similar but weaker effect to BFA, in that it causes the accumulation of uncleaved PEXEL precursors in the ER, perturbing ER transport, and that this negatively affects translation by an ER stress response. An alternative possibility is that translation was decreased slightly as a result of parasites dying from 916-mediated impairment of erythrocyte remodeling. Either way, the profile for 916 was different to that seen for 024 and 025, even at 50 µM, indicating the latter analogs likely kill parasites via a different mechanism to 916.
Whole parasite proteins were radiolabeled by culturing magnet-purified trophozoites (wild-type 3D7 or expressing PfEMP3-GFP) in Met/Cys-free medium for 30 min at 37°C before addition of 800 µCi/ml ^35S-Met/Cys (Perkin/Elmer) to the medium for the indicated times. Pellets were snap frozen in ethanol/dry ice bath and stored at −80°C. For radiolabeling in the presence of PMV inhibitor, parasites were treated with 20 µM WEHI-916 for 5 h before labeling commenced. For pulse-chases, proteins were radiolabeled in the presence or absence of inhibitor, as above, before further culture in radiolabel-free, inhibitor-free complete medium for the indicated times at 37°C before snap freezing. Frozen samples were either solubilized in Laemmli's buffer (Figure S4) or solubilized in 1% Triton X-100/PBS with protease inhibitor cocktail (Roche) and PfEMP3-GFP species immunopurified with α-GFP agarose (MBL) at 4°C for 2 h (Figures 3 and S3), and proteins were resolved by SDS-PAGE, visualized by autoradiography (7-d exposures), and quantified using a GS-800 Calibrated Densitometer (Bio-Rad).

PfPMV = PfPMV (Plasmodium falciparum, UniProt Q8I6Z5); assay: PEXEL cleavage assay with immunopurified PfPMVHA and fluorogenic KAHRP PEXEL peptide; type: biochemical
Chain of PfPMV (Q8I6Z5 34-590): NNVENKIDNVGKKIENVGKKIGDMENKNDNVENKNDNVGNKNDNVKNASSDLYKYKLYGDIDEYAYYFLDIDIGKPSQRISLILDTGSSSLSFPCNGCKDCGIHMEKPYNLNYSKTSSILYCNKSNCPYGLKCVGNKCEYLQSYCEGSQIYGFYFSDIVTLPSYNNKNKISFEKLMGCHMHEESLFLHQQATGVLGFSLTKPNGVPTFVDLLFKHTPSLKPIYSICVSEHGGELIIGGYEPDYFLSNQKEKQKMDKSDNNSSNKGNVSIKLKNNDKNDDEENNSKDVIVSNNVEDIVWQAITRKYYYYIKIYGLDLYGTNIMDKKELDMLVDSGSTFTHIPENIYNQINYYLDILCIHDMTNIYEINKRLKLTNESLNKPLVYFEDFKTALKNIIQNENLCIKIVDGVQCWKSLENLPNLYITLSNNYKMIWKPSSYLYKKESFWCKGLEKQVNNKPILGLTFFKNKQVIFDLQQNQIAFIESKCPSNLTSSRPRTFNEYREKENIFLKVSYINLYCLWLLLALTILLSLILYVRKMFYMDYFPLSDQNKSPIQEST
Experimental: To investigate PvPMVHA activity, we affinity purified it, as well as the PfPMVHA control, using anti-HA agarose, as previously described,[18]. […] The proteins were incubated with a fluorogenic peptide of nine amino acids that contained the PEXEL sequence from knob-associated histidine-rich protein (KAHRP), and efficient processing was observed by both enzymes (Figure 1E). Cleavage of KAHRP by PfPMVHA was previously shown to occur after Leu (RTL↓) by mass spectrometry, and this position was also confirmed for PvPMVHA (Figure S2B–E). […] In contrast, no processing was observed when the PEXEL Arg and Leu residues were mutated to Ala (ATAAQ), consistent with the substrate specificity of PfPMV (Figure 1E). To verify that processing was due to HA-tagged PMV rather than other co-precipitated proteases, we expressed in P. falciparum a mutant of PvPMVHA or PfPMVHA [13], where one or both catalytic Asp residues were mutated to Ala (see Figure 1A,B). Following affinity purification, the mutant enzymes were incubated with KAHRP PEXEL peptides, but no processing was observed (Figure 1E; blue, white), confirming that the PEXEL-dependent cleavage activity observed for each protease was attributable only to HA-tagged PMV.
Each compound was incubated with PfPMVHA in the presence of KAHRP PEXEL peptides.
PMV-agarose was prepared by adding α-HA-agarose (Sapphire Bioscience) to parasite lysates, prepared by sonication in 1% Triton X-100/PBS, for 1 h before extensive washing in same,[13]. PEXEL cleavage assays (20 µl total volume) consisted of 0.2 µl PMV-agarose in digest buffer (25 mM Tris, 25 mM MES, pH 6.4) with 1.5 µM FRET peptide substrate (DABCYL-[…]-E-EDANS, DABCYL-[…]-E-EDANS, LifeTein; DABCYL-[…]-E-EDANS, DABCYL-[…]-E-EDANS; Mimotopes) ± inhibitor. Samples were excited at 340 nm and fluorescence emission measured at 492 nm using an Envision fluorescence plate reader (Perkin-Elmer) heated to 37°C for 150 min. Samples were shaken between measurements. For determination of the peptide cleavage position by PvPMVHA, the fluorogenic peptide (DABCYL-[…]-E-EDANS), representing the wild-type KAHRP PEXEL sequence, was incubated with and without PvPMVHA at 37°C for 48 h. Products of the incubation were detected by a molecular formula algorithm using an Agilent 6200 TOF/6500 series mass spectrometer.

[2] = system: cytoadherence of infected erythrocytes to CSA; assay: Static adhesion of infected erythrocytes to chondroitin sulfate A (CSA); type: cell-based, Plasmodium falciparum; settings: static conditions
Experimental: Adhesion assays were performed as described previously,[33]. Briefly, CSA (Sigma) was spotted at 50 µg/ml in triplicate into petri dishes, incubated overnight at 4°C, and blocked in 1% casein/PBS for 2 h. Inhibitor-treated erythrocytes were added to CSA-coated dishes and incubated for 45 min at 37°C. Dishes were washed four times with 5 ml warm RPMI-HEPES, fixed in 2% paraformaldehyde for 2 h, stained with 10% Giemsa for 15 min, and the number of adherent erythrocytes per mm^2 quantified by light microscopy counts. Assays were performed in triplicate.

[3] = target: PMV in P. falciparum–infected erythrocytes (Plasmodium falciparum, UniProt Q8I6Z5); assay: PEXEL processing of GFP reporters in parasites by immunoblot; type: cell-based; settings: for PEXEL processing of KAHRP-GFP in parasites, in words / PEXEL processing of PfEMP3-GFP in parasites, in words: 5 h treatment, immunoblot; for PEXEL processing of KAHRP-GFP in parasites, in words: 20 and 50 µM; for PEXEL processing of PfEMP3-GFP in parasites, in words: up to 50 µM
Chain of PMV in P. falciparum–infected erythrocytes (Q8I6Z5 whole entry, the tested form may be a part): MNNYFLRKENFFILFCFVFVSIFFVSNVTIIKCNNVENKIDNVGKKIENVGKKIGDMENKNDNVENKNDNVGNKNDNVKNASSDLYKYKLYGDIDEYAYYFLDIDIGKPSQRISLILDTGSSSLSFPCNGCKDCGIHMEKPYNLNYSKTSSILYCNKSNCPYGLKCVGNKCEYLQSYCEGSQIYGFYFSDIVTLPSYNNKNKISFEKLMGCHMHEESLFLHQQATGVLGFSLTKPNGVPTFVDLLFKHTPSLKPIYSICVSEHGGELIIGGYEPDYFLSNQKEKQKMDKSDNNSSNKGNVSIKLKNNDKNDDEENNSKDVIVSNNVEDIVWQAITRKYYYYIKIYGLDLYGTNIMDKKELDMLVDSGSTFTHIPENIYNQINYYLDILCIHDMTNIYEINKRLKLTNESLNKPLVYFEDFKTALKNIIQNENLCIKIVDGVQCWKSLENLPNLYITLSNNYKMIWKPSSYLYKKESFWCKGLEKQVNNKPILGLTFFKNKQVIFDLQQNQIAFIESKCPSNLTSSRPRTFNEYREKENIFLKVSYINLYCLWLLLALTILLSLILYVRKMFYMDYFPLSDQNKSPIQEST
Experimental: To assess whether 916 could inhibit PMV in P. falciparum–infected erythrocytes, parasites expressing the PEXEL protein P. falciparum erythrocyte membrane protein 3 (PfEMP3) fused to green fluorescent protein (GFP) were treated with increasing concentrations of inhibitor, and PEXEL processing was evaluated by immunoblot. […] A GFP-only band, representing degraded chimera in the food vacuole, was also observed at ∼26 kDa (Figure 3A).
Trophozoites (30–34 h) expressing PfEMP3-GFP, KAHRP-GFP, or SERA5s-GFP were magnet-purified (Miltenyi Biotech), incubated with inhibitors in 400 µl total volume at 37°C for 1–5 h, treated with 0.09% saponin containing inhibitor, and washed pellets were solubilized in Laemmli's buffer, boiled for 3 min, and frozen at −20°C. Proteins were separated by SDS-PAGE, transferred to nitrocellulose and blocked in 10% skim milk/PBS-T, and probed with rat α-HA (Roche 3F10; 1∶1,000), mouse α-GFP (Roche; 1∶1,000), rabbit α-Aldolase (1∶1,000), rabbit α-HSP70 (1∶4,000), rabbit α-PfPMV (1∶1,000), or rabbit α-Hyp8 (1∶500) primary antibodies followed by horseradish peroxidase-conjugated secondary antibodies (Silenius) and detected by enhanced chemiluminescence (Amersham).

Row | SMILES | Global protein synthesis after 23 h treatment of rings [1] | Global protein synthesis after 5 h treatment of trophozoites [1] | IC50 (PfPMV; IC50 PfPMV, PfPMVHA) | Effect on adhesion to CSA, in words [2] | PEXEL processing of KAHRP-GFP in parasites, in words [3] | PEXEL processing of PfEMP3-GFP in parasites, in words [3] | IC50 (PfPMV; IC50 PfPMVHA, PEXEL cleavage) | Reduction of adhesion to CSA ([2]; compared to DMSO) | Inhibition of PfEMP3-GFP cleavage after 2 to 5 h of treatment ([3]; 2 to 5 h) | Inhibition of PfEMP3-GFP cleavage after 1 h of treatment ([3]; 1 h) | inhibition at 20 µM ([3]; read-out: Rescue of PfEMP3-GFP cleavage inhibition in inhibitor-free medium)
1 | CC[C@H](C)[C@H](NC(=O)[C@@H](NC(=O)[C@H](CCCNC(=N)N)NS(=O)(=O)Cc1ccccc1)C(C)C)[C@@H](O)CC(=O)NCCc1ccccc1 [compound 025, PhCH2SO2Arg-Val-AHMHpA-NH(CH2)2Ph . TFA] | no defect in global protein synthesis | no defect in global protein synthesis | 1110 nM | no effect | no effect | no effect |  |  |  |  | 
2 | CC(C)C[C@H](NC(=O)[C@@H](NC(=O)[C@H](CCCNC(=N)N)NS(=O)(=O)Cc1ccccc1)C(C)C)[C@@H](O)CC(=O)NCCc1ccccc1 [compound 916, PhCH2SO2-Arg(NH2)-Val-Sta-NH(CH2)2Ph .TFA] | minor reduction in translation; also recorded: slight reduction in translation | no defect in global protein synthesis |  |  | accumulation of both uncleaved (black arrow) and signal peptide-cleaved (red arrow) protein | dose-dependent increase in unprocessed PfEMP3-GFP | 20 nM | ~50% | uncleaved PfEMP3-GFP increased | No effect | ~50%
